The values that follow come from PMC10461232, “Structure-Based Design of Transport-Specific Multitargeted One-Carbon Metabolism Inhibitors in Cytosol and Mitochondria” (Journal of Medicinal Chemistry, 2023).

Like-named read-outs stand apart in the source and are kept apart here.

A word on the Ki: it is a measure of affinity in units of concentration, obtained from inhibition or displacement. Higher therefore signals a looser hold on the target.

Assay [1] has as its system PC43-10 (RFC) CHO cells. As to the kind of experiment: Growth inhibition, PC43-10 CHO cells expressing human RFC. In kind it is cell-based, Chinese hamster. The conditions noted are these: Cricetulus griseus, 96 h, read-out: IC50 PC43-10 (RFC).
The test system of assay [2] is R2/PCFT4 (PCFT) CHO cells. As to the kind of experiment: Growth inhibition, R2/PCFT4 CHO cells expressing human PCFT. In kind it is cell-based, Chinese hamster. The conditions noted are these: Cricetulus griseus, 96 h, read-out: IC50 R2/PCFT4 (PCFT).
Assay [3] addresses T1, human GARFTase (Homo sapiens, UniProt P22102).
T1 construct: formyltransferase domain of human GARFTase (residues 808–1010); made in house; host or cells: E. coli Rosetta (DE3)pLysS
T1 sequence (P22102 808-1010): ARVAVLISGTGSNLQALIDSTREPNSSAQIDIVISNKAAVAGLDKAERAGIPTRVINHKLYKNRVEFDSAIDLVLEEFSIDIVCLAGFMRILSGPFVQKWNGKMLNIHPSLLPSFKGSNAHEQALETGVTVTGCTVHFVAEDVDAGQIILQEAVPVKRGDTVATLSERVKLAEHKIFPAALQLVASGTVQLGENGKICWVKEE
The experiment in a line: GARFTase inhibition assay, Ki (10-formyl THF to THF, absorbance 298 nm). In kind it is biochemical. The conditions noted are these: purified His-GARFTase, 40 μM 10-formyl THF, 37 °C; mean (SD), at least 3 replicates.

In assay [4] the test system is KB (RFC/PCFT/FRα) cells. As to the kind of experiment: Growth inhibition, KB nasopharyngeal carcinoma cells. In kind it is cell-based, human. The conditions noted are these: folate-free RPMI 1640, 2 nM leucovorin, mean (SE). The method, then:
The CHO cells were cultured in α-minimal essential medium (MEM) supplemented with 10% bovine calf serum (Fisher Scientific), penicillin (1000 U/mL)/streptomycin (1000 μg/mL), and 2 mM L-glutamine at 37 °C with 5% CO2. All of the R2 transfected cells (PC43-10, RT16, R2/PCFT4) were cultured in complete α-MEM media plus 1 mg/mL G418. Prior to the cytotoxicity assays (see below), RT16 and D4 cells were cultured for 3 days in complete folate-free RPMI 1640 (without added folate), and R2/PCFT4 and R2 cells were cultured in complete folate-free RPMI 1640 supplemented with dialyzed fetal bovine serum (Fisher Scientific) and 25 nM leucovorin plus 1 mg/mL G418. KB cells were routinely cultured in folate-free RPMI 1640 medium, supplemented with 10% fetal bovine serum (Fisher Scientific), penicillin-streptomycin solution, and 2 mM L-glutamine at 37 °C with 5% CO2.
For growth inhibition studies, cells (CHO, KB) were plated in 96-well dishes (∼2500–5000 cells/well, total volume of 200 μL medium) over a range of antifolate concentrations.[69],[77] The medium was folate-free RPMI 1640 with 10% dialyzed serum and antibiotics supplemented with 25 nM leucovorin for experiments with R2, PC43-10, and R2/PCFT4 cells. For experiments with RT16, D4, and KB cells, cells were cultured in folate-free RPMI medium with 10% dialyzed fetal bovine serum and antibiotics; the medium was supplemented with 2 nM leucovorin. […] Incubations were routinely for up to 96 h. Viable cells (reflecting cell viability) were assayed with Cell Titer Blue reagent (Promega, Madison, WI), with fluorescence measured (590 nm emission, 560 nm excitation) with a fluorescence plate reader.

Assay [5] has as its system R2 (MTXRIIOuaR2-4) CHO cells. As to the kind of experiment: Growth inhibition, transporter-null R2 CHO cells. Type of assay: cell-based, Chinese hamster. The conditions noted are these: Cricetulus griseus, 96 h, read-out: IC50 R2.
The subject of assay [6] is HPNE (RFC) cells. The experiment in a line: Proliferation inhibition, HPNE normal pancreatic epithelial cells. In kind it is cell-based. The conditions noted are these: Homo sapiens, folate- and glycine-free RPMI, 25 nM leucovorin. The text has this:
(§1) The RFC-, PCFT-, and FR-null MTXRIIOua^R2–4 (R2), and RFC- (PC43-10), PCFT- (R2/PCFT4), FRα- (RT16), and FRβ- (D4) expressing CHO sublines were previously described.[62]−[64],[76] HPAC pancreatic cancer cells were generously provided by Dr. Yubin Ge (Karmanos Cancer Institute, Detroit, MI). Human pancreatic normal epithelial (HPNE) cells[67] were a gift from M. Oulette (University of Nebraska Medical Center, Omaha, NE). KB human nasopharyngeal carcinoma cells were purchased from the American Type Culture Collection (Manassas, VA). All human cell lines were validated by STR analysis by Genetica DNA Laboratories (Burlington, NC). Cell lines were tested for Mycoplasma by PCR using a Mycloplasma testing kit (Venor GeM Mycoplasma Detection Kit, Sigma). Frozen stocks were generated from authenticated Mycoplasma-free cultures.

Assay [7] concerns RT16 (FRα) CHO cells. The experiment in a line: Growth inhibition, RT16 CHO cells expressing human FRα. In kind it is cell-based, Chinese hamster.
Assay [8] deals with D4 (FRβ) CHO cells. As to the kind of experiment: Growth inhibition, D4 CHO cells expressing human FRβ. In kind it is cell-based, Chinese hamster. The conditions noted are these: for IC50: Cricetulus griseus, CHO.
The test system of assay [9] is HPAC (RFC/PCFT) cells. The experiment in a line: Proliferation inhibition, HPAC pancreatic adenocarcinoma cells. The conditions noted are these: HPAC cells, folate- and glycine-free RPMI, 25 nM leucovorin, mean (SE). Type of assay: cell-based, human.
Excerpt: as §1

The target in assay [10] is T2, human ATIC (Homo sapiens, UniProt P31939).
T2 construct: N-terminal His6-tagged full-length human ATIC; made in house; host or cells: E. coli Rosetta (DE3)pLysS
The experiment in a line: AICARFTase (ATIC) inhibition assay, Ki. Type of assay: biochemical. The conditions noted are these: for Ki: purified His-ATIC, AICARFTase activity, 50 μM 10-formyl THF, 25 °C, mean (SD), at least 3 replicates. How it is done: The cells were grown at 37 °C in 1 L cultures of LB media containing […] and […] until OD600 reached 0.6. Protein expression was induced by the addition of isopropyl β-D1-thiogalactopyranoside (IPTG, 500 μM).
His-ATIC was purified by Ni-NTA chromatography (Gold Biotechnology).[36] […] His-ATIC was eluted in 1 column volume fractions, 5 times with buffer containing 300 mM imidazole, 25 mM Tris-HCl, pH 7.5, 300 mM NaCl, and 5 mM β-Me. Size exclusion chromatography on a Superdex 200 16/60 (GE Healthcare) column was used for final purification using 20 mM Tris-HCl, pH 7.5, 150 mM NaCl, 50 mM KCl, 5 mM EDTA, and 5 mM dithiothreitol.
MTHFD2 activities were assayed by a reaction with methylene THF and NAD^+. NADH production was measured by fluorescence (excitation 340 nm, emission 480 nm). Reaction conditions included 100 nM MTHFD2, 5 μM methylene THF, and concentrations of small-molecule inhibitor ranging from 0.02 nM to 2000 nM; NAD^+ (2.5 mM) was added to initiate the reaction. The reaction buffer consisted of 50 mM Tris-HCl, pH 7.5, 250 mM NaCl, 5 mM magnesium chloride, 5% glycerol, and 0.5 mM TCEP. […] To assay SHMT1 or SHMT2 (SHMT1/2) enzymes, a coupled reaction with His-MTHFD2 in 200-fold molar excess was used where the production of NADH was monitored by fluorescence with excitation at 360 nm and emission at 470 nm at 25 °C. The reactions contained 5 nM His-SHMT1/2, 50 μM THF, 20 mM serine, 10 μM His-MTHFD2, 2.5 mM NAD^+, and a range of inhibitor concentrations (final concentrations). The reactions were performed in buffer containing 20 mM sodium phosphate, pH 7.5, 100 mM KCl, 0.2 mM EDTA, and 5 mM β-Me. […] To calculate IC50 values for each inhibitor, initial velocities were graphed as a function of inhibitor concentrations and fit with a three-parameter nonlinear regression (GraphPad Prism 8.0). The equation [Ki = IC50/([S]/KM + 1)] was used to convert IC50’s to Ki values.

Assay [11] deals with T3, SHMT1 (Homo sapiens, UniProt P34896).
T3 construct: full-length SHMT1 with an N-terminal His6-tag; made in house; host or cells: E. coli Rosetta (DE3)pLysS
T3 sequence (P34896 1-483): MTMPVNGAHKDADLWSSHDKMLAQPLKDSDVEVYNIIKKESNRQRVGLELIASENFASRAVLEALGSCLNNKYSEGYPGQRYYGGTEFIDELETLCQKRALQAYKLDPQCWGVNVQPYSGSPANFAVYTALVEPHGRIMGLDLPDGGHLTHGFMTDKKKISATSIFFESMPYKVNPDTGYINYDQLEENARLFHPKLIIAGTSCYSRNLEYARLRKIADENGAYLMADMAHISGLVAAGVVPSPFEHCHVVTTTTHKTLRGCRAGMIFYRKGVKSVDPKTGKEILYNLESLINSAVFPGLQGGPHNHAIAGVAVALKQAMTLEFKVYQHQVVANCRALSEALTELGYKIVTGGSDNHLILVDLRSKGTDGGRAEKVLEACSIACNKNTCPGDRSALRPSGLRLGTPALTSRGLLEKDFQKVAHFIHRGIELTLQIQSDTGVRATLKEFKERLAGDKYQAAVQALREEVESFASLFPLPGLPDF
The experiment in a line: SHMT1 inhibition assay coupled with MTHFD2, Ki. The conditions noted are these: purified His-SHMT1, 50 μM THF, 25 °C; mean (SD), at least 3 replicates. Type of assay: biochemical.
Experimental: Kinetic measurements were recorded in triplicate using a flat, black-bottom, black-walled 96-well plate (Greiner Bio-One, 655900) and a BioTek Synergy Neo2 Plate Reader. […] To assay SHMT1 or SHMT2 (SHMT1/2) enzymes, a coupled reaction with His-MTHFD2 in 200-fold molar excess was used where the production of NADH was monitored by fluorescence with excitation at 360 nm and emission at 470 nm at 25 °C. The reactions contained 5 nM His-SHMT1/2, 50 μM THF, 20 mM serine, 10 μM His-MTHFD2, 2.5 mM NAD^+, and a range of inhibitor concentrations (final concentrations). The reactions were performed in buffer containing 20 mM sodium phosphate, pH 7.5, 100 mM KCl, 0.2 mM EDTA, and 5 mM β-Me. A BioTek Synergy Neo2 Plate Reader was used to record kinetic measurements in triplicate in a UV-transparent 96-well plate (Costar 3635) for GARFTase and AICARFTase assays and a black-well, black-bottom 96-well plate (Corning 3603). To calculate IC50 values for each inhibitor, initial velocities were graphed as a function of inhibitor concentrations and fit with a three-parameter nonlinear regression (GraphPad Prism 8.0). The equation [Ki = IC50/([S]/KM + 1)] was used to convert IC50’s to Ki values.

The mark [12] stands for this setting: CHO cells expressing human RFC, 25 nM leucovorin, mean (SE).
Where [13] appears, read: CHO cells expressing human PCFT, 25 nM leucovorin, mean (SE).
Setting [14] is: transporter-null CHO cells, 25 nM leucovorin, mean (SE).
The mark [15] stands for this setting: Cricetulus griseus, 96 h, CHO cells expressing human FRα, 96 h, 2 nM leucovorin, mean (SE), read-out: IC50 RT16 (FRα).
The mark [16] stands for this setting: 96 h, CHO cells expressing human FRβ, 96 h, 2 nM leucovorin, mean (SE), read-out: IC50 D4 (FRβ).
The mark [17] stands for this setting: CHO cells expressing human FRα, 96 h, 2 nM leucovorin, mean (SE), read-out: IC50 RT16 (FRα).

T2 sequence (P31939 whole entry): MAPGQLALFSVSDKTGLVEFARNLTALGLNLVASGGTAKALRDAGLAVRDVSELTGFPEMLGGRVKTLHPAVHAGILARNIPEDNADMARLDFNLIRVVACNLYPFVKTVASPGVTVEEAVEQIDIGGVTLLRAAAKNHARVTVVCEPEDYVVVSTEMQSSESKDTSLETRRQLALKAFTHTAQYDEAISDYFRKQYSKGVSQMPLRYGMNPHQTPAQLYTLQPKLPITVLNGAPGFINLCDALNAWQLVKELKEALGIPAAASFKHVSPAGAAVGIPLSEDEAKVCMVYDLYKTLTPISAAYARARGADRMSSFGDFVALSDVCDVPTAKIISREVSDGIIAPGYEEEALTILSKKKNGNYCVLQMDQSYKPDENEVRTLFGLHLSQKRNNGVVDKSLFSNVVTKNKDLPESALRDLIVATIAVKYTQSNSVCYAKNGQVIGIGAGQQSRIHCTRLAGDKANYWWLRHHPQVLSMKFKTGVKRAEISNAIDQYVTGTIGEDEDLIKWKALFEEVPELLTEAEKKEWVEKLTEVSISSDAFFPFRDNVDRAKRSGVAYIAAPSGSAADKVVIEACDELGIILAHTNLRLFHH

Take `Nc1nc2ccn(CCCCc3ccc(C(=O)N[C@@H](CCC(=O)O)C(=O)O)c(F)c3)c2c(=O)[nH]1` [Compound 1, (4-(4-(2-Amino-4-oxo-3,4-dihydro-5H-pyrrolo[3,2-d]pyrimidin-5-yl)butyl)-2-fluorobenzoyl)-L-glutamic Acid]: the IC50 is 224 nM in assay [1]; 479 nM in assay [2]; 1.3 nM in assay [4] (Homo sapiens, KB); 1.25 nM in [4]; above 1000 nM in assay [5] (CHO); above 5000 nM in assay [6]. Further, the IC50 came out at 1 nM in assay [7] (Cricetulus griseus, RT16, read-out: IC50 FRα (cell-based inhibition), Figure 14, from Table 3 (RT16 cells)); 1 nM in [8] (read-out: IC50 FRβ (cell-based inhibition), Figure 14, from Table 3 (D4 cells)); 196 nM in assay [9] (Homo sapiens, HPAC). In [3], this molecule displayed a Ki of 3130 nM.
`Nc1nc2ccn(CCCc3ccc(C(=O)N[C@@H](CCC(=O)O)C(=O)O)cc3)c2c(=O)[nH]1` [Compound 2]: the Ki in assay [10] stood at 13400 nM. Further, the IC50 was 41.9 nM in assay [1] (setting [12]); 191 nM in [2] (setting [13]); 6.73 nM in assay [4] (Homo sapiens, KB); above 1000 nM in assay [5] (setting [14]); above 5000 nM in assay [6]; 49.9 nM in assay [7] (setting [15]). Further, the IC50 was 2.37 nM in [8] (setting [16]); 310 nM in assay [9]; 310 nM in [9] (Homo sapiens, HPAC). For the same molecule, in [8] (RT16 versus D4 CHO cells), the “difference between D4 (FRβ) and RT16 (FRα) IC50” value was 20- to 40 fold.
`Nc1nc2ccn(CCCSc3ccc(C(=O)N[C@@H](CCC(=O)O)C(=O)O)cc3)c2c(=O)[nH]1` [Compound 7, (4-((3-(2-Amino-4-oxo-3,4-dihydro-5H-pyrrolo[3,2-d]pyrimidin-5-yl)propyl)thio)benzoyl)-L-glutamic Acid] had a Ki in assay [10] of 4810 nM. Further, the IC50 in assay [1] (setting [12]) was above 1000 nM; in [2], above 1000 nM; in [4] (Homo sapiens, KB), 31.5 nM; in [4] it was 31.5 nM; in [5] (setting [14]) it was above 1000 nM; in [6], above 5000 nM. For the same molecule, the IC50 was 3.13 nM in assay [7] (setting [17]); below 3 nM in [7] (setting [15]); above 5000 nM in assay [9] (Homo sapiens, HPAC).
In the case of `Nc1nc2ccn(CCCCc3csc(C(=O)N[C@@H](CCC(=O)O)C(=O)O)c3F)c2c(=O)[nH]1` [Compound 14, (4-(4-(2-Amino-4-oxo-3,4-dihydro-5H-pyrrolo[3,2-d]pyrimidin-5-yl)butyl)-3-fluorothiophene-2-carbonyl)-L-glutamic Acid], the values for the Ki in assay [10] and in [3] were 930 nM and 2490 nM, respectively. Besides, the “fold better than 1, ATIC” value in [10] (ratio of Ki values relative to compound 1) is on record as around 4 fold. The IC50 in [1] (setting [12]) is above 1000 nM; in assay [2] (setting [13]), above 1000 nM; in [4] (Homo sapiens, KB) it was 6 nM; in assay [5] (setting [14]), above 1000 nM; in assay [6] it was above 5000 nM; in [7] (setting [15]), 19.8 nM. The IC50 in [8] (setting [16]) amounted to 6.2 nM; in [9] (Homo sapiens, HPAC) it was 1600 nM.
Take `Nc1nc2ccn(CCCCc3ccc(C(=O)N[C@@H](CCC(=O)O)C(=O)O)s3)c2c(=O)[nH]1` [Compound 16]: the IC50 was above 1000 nM in assay [1] (setting [12]); above 1000 nM in [2] (setting [13]); 2.58 nM in assay [4] (Homo sapiens, KB); above 1000 nM in assay [5] (setting [14]); above 5000 nM in assay [6]; 2.82 nM in assay [7] (setting [17]). The IC50 is below 3 nM in assay [7] (setting [15]) and 3210 nM in assay [9] (Homo sapiens, HPAC). This molecule displayed a Ki in assay [11] of 1040 nM.
